Values quoted from earlier work in patent publication US20070213354A1, “Compositions and Methods for the Treatment of Multiple Sclerosis” (AmpliMed Corporation, priority 2006, published 2007).
pIC50: −log10 of the molar value.

Tests used:
neonatal rat myocytes = conditions: 1 hour drug concentration that reduces ATP/protein ratio to 50% of untreated control myocytes; read-out: IC50 Cardiotox; cited from earlier work
L1210 sensitive = conditions: murine leukemia L1210 sensitive to standard cytotoxic agents; MTT, continuous exposure; cited from earlier work
L1210 resistant = conditions: murine leukemia L1210 resistant, P-glycoprotein producing; MTT, continuous exposure; cited from earlier work

Compound	pIC50 (neonatal rat myocytes)	pIC50 (L1210 sensitive)	pIC50 (L1210 resistant)
CCN1CCCC(N2C(=O)c3cccc4cc5ccccc5c(c34)C2=O)C1 (centres unmarked) [2-(1-ethyl-3-piperidinyl)]	5.06	6.20	6.22
O=C1c2cccc3cc4ccccc4c(c23)C(=O)N1c1cccnc1 [2-(3-pyridyl)]	< 4.60	6.26	6.26
O=C1c2cccc3cc4ccccc4c(c23)C(=O)N1CCc1ccccn1 [2-(CH2)2-2-pyridyl]	< 4.60	5.19	4.81
CN1CCCC1CCN1C(=O)c2cccc3cc4ccccc4c(c23)C1=O (centres unmarked) [2-(CH2)2-(1-methyl-2-pyrrolidinyl)]	5.15	7.29	7.25
O=C1c2cccc3cc4ccccc4c(c23)C(=O)N1CCN1CCCC1 [2-(CH2)2N(CH2)4]	6.04	7.82	7.92
O=C1c2cccc3cc4ccccc4c(c23)C(=O)N1CCN1CCCCC1 [2-(CH2)2N(CH2)5]	4.98	7.29	7.29
CN(C)CCN1C(=O)c2cccc3cc4ccccc4c(c23)C1=O [2-(CH2)2N(CH3)2]	5.70	8.15	8.15
O=C1c2cccc3cc4ccccc4c(c23)C(=O)N1CCNCCO [2-(CH2)2NH(CH2)2OH]	6.03	7.74	7.39
CNCCN1C(=O)c2ccc(Cl)c3cc4ccccc4c(c23)C1=O [2-(CH2)2NHCH3; 6-Cl]	5.12	7.28	7.28
CNCCN1C(=O)c2ccc(OC)c3cc4ccccc4c(c23)C1=O [2-(CH2)2NHCH3; 6-OCH3]	5.09	7.39	7.57
CNCCN1C(=O)c2cccc3cc4ccccc4c(c23)C1=O [2-(CH2)2NHCH3]	5.15	8.00	7.68
O=C1c2cccc3cc4ccccc4c(c23)C(=O)N1CCN1CCOCC1 [2-(CH2)2—N-morpholinyl]	< 4.60	6.29	6.29
O=C1c2cccc3cc4ccccc4c(c23)C(=O)N1CCN1CCNCC1 [2-(CH2)2—N-piperazinyl]	5.17	6.76	6.33
O=C1c2cccc3cc4ccccc4c(c23)C(=O)N1CCCN(CCO)CCO [2-(CH2)3N(CH2CH2OH)2]	5.05	7.12	6.85
CN(C)CCCN1C(=O)c2cccc3cc4ccccc4c(c23)C1=O [2-(CH2)3N(CH3)2]	4.94	7.27	7.09
CN(C)c1ccc(N2C(=O)c3cccc4cc5ccccc5c(c34)C2=O)cc1 [2-(p-N(CH3)2)—C6H5)]	4.43	6.73	5.75
O=C1c2cccc3cc4ccccc4c(c23)C(=O)N1Cc1ccccn1 [2-CH2-2-pyridyl]	< 4.60	4.57	4.57
O=C1c2cccc3cc4ccccc4c(c23)C(=O)N1Cc1cccnc1 [2-CH2-3-pyridyl]	< 4.60	5.73	5.57
CCN1CCCC1CN1C(=O)c2cccc3cc4ccccc4c(c23)C1=O (centres unmarked) [2-CH2-(1-ethyl-2-pyrrolidinyl)]	4.82	7.44	7.26
Cc1ccc2cc3ccccc3c3c2c1C(=O)N(CCN(C)C)C3=O [*4-CH3]	5.87	7.27	7.17
CN(C)CCN1C(=O)c2c(Cl)ccc3cc4ccccc4c(c23)C1=O [*4-Cl]	6.05	8.00	7.82

Compound	pIC50 (neonatal rat myocytes)	pIC50 (L1210 sensitive)	pIC50 (L1210 resistant)
CN(C)CCN1C(=O)c2c(N)ccc3cc4ccccc4c(c23)C1=O [*4-NH2]	6.36	8.30	8.10
CN(C)CCNc1ccc2cc3ccccc3c3c2c1C(=O)N(CCN(C)C)C3=O [*4-NH(CH2)2N(CH3)2]	6.13	6.68	6.61
CN(C)CCN1C(=O)c2c(NC(=O)C(C)(C)C)ccc3cc4ccccc4c(c23)C1=O [*4-NHCOC(CH3)3]	< 4.61	6.06	6.76
CC(=O)Nc1ccc2cc3ccccc3c3c2c1C(=O)N(CCN(C)C)C3=O [*4-NHCOCH3]	< 4.61	6.22	6.25
CN(C)CCN1C(=O)c2cc(N)cc3cc4ccccc4c(c23)C1=O [*5-NH2]	5.76	8.22	7.82
CN(C)CCN1C(=O)c2cc(NC(=O)C(C)(C)C)cc3cc4ccccc4c(c23)C1=O [*5-NHCOC(CH3)3]	6.18	7.36	7.82
CC(=O)Nc1cc2c3c(c4ccccc4cc3c1)C(=O)N(CCN(C)C)C2=O [*5-NHCOCH3]	6.75	7.72	7.14
CCc1ccc2c3c(c4ccccc4cc13)C(=O)N(CCN(C)C)C2=O [*6-C2H5]	5.11	6.74	6.63
Cc1ccc2c3c(c4ccccc4cc13)C(=O)N(CCN(C)C)C2=O [*6-CH3]	6.00	8.15	7.57
CN(C)CCN1C(=O)c2ccc(Cl)c3cc4ccccc4c(c23)C1=O [*6-Cl]	5.39	7.11	7.19
CN(C)CCN1C(=O)c2ccc(I)c3cc4ccccc4c(c23)C1=O [*6-I]	4.36	6.38	6.38
CN(C)CCN1C(=O)c2ccc(N(C)C)c3cc4ccccc4c(c23)C1=O [*6-N(CH3)2]	4.33	7.64	7.02
CN(C)CCN1C(=O)c2ccc(N)c3cc4ccccc4c(c23)C1=O [*6-NH2]	5.83	8.30	7.57
CN(C)CCNc1ccc2c3c(c4cccc(Cl)c4cc13)C(=O)N(CCN(C)C)C2=O [*6-NH(CH2)2N(CH3)2; 8-Cl]	5.49	8.52	8.15
CN(C)CCNc1ccc2c3c(c4ccccc4cc13)C(=O)N(CCN(C)C)C2=O [*6-NH(CH2)2N(CH3)2]	5.38	10.40	10.40
CN(C)CCN1C(=O)c2ccc(NCCO)c3cc4ccccc4c(c23)C1=O [*6-NH(CH2)2OH]	5.92	8.22	7.32
CN(C)CCOc1ccc2c3c(c4ccccc4cc13)C(=O)N(CCN(C)C)C2=O [*6-O(CH2)2N(CH3)2]	5.26	9.70	9.00
CCCOc1c2ccccc2c2c3c(cccc13)C(=O)N(CCN(C)C)C2=O [*6-OC3H7]	5.11	7.77	7.31
COc1ccc2c3c(c4ccccc4cc13)C(=O)N(CCN(C)C)C2=O [*6-OCH3]	6.10	8.52	8.40
CN(C)CCN1C(=O)c2ccc(O)c3cc4ccccc4c(c23)C1=O [*6-OH]	< 4.62	6.66	6.84
CCSc1ccc2c3c(c4ccccc4cc13)C(=O)N(CCN(C)C)C2=O [*6-SC2H5]	5.11	8.22	8.30

Compound	pIC50 (neonatal rat myocytes)	pIC50 (L1210 sensitive)	pIC50 (L1210 resistant)
CSc1ccc2c3c(c4ccccc4cc13)C(=O)N(CCN(C)C)C2=O [*6-SCH3]	5.52	9.40	9.30
CN(C)CCN1C(=O)c2ccc(S(C)(=O)=O)c3cc4ccccc4c(c23)C1=O [*6-SO2CH3]	5.64	7.46	7.46
Cc1c2ccccc2c2c3c(cccc13)C(=O)N(CCN(C)C)C2=O [*7-CH3]	5.77	7.47	7.15
CN(C)CCN1C(=O)c2cccc3c(Cl)c4ccccc4c(c23)C1=O [*7-Cl]	4.97	6.81	6.69
CN(C)CCN1C(=O)c2cccc3c(N)c4ccccc4c(c23)C1=O [*7-NH2]	5.71	8.30	8.15
CN(C)CCNc1c2ccccc2c2c3c(cccc13)C(=O)N(CCN(C)C)C2=O [*7-NH(CH2)2N(CH3)2]	3.54	6.28	6.28
CC(=O)Nc1c2ccccc2c2c3c(cccc13)C(=O)N(CCN(C)C)C2=O [*7-NHCOCH3]	< 4.63	6.31	6.31
CCOc1c2ccccc2c2c3c(cccc13)C(=O)N(CCN(C)C)C2=O [*7-OC2H5]	5.28	7.20	7.30
CN(C)CCN1C(=O)c2cccc3c(O)c4ccccc4c(c23)C1=O [*7-OH]	< 4.62	6.33	6.67
CSc1c2ccccc2c2c3c(cccc13)C(=O)N(CCN(C)C)C2=O [*7-SCH3]	< 4.30	5.20	5.91
CN(C)CCN1C(=O)c2cccc3cc4c(N)cccc4c(c23)C1=O [*8-NH2]	< 4.09	5.17	5.17
CC(=O)Nc1cccc2c3c4c(cccc4cc12)C(=O)N(CCN(C)C)C3=O [*8-NHCOCH3]	4.92	6.31	6.29
CN(C)CCN1C(=O)c2cccc3cc4c([N+](=O)[O-])cccc4c(c23)C1=O [*8-NO2]	6.19	7.30	7.70
COc1cccc2c3c4c(cccc4cc12)C(=O)N(CCN(C)C)C3=O [*8-OCH3]	6.09	7.89	7.74
CN(C)CCN1C(=O)c2cccc3cc4c(O)cccc4c(c23)C1=O [*8-OH]	5.53	6.97	7.17
CN(C)CCN1C(=O)c2cccc3cc4cc(Cl)ccc4c(c23)C1=O [*9-Cl]	5.81	8.10	8.10
CN(C)CCN1C(=O)c2cccc3cc4cc(N)ccc4c(c23)C1=O [*9-NH2]	6.09	8.52	7.80
CC(=O)Nc1ccc2c3c4c(cccc4cc2c1)C(=O)N(CCN(C)C)C3=O [*9-NHCOCH3]	6.31	6.94	6.77
CN(C)CCN1C(=O)c2cccc3cc4ccc(F)cc4c(c23)C1=O [*10-F]	6.34	8.10	–
